Experimental data from paper PMC10112232, “Comparison of Toxicities among Different Bumped Kinase Inhibitor Analogs for Treatment of Cryptosporidiosis” (Antimicrobial Agents and Chemotherapy, 2023).
Read-outs that look alike come from different tables or passages of the source.

Columns and labels:
[1] = cited from earlier work; for CO / HR / MAP / PR / QRS / QTcV / SVR / dp/dt@50: dog, IV 0.02 mL/kg/min
[2] = cited from earlier work; for HR / MAP / dP/dt@50: rat
[3] = target: T1, human tyrosine kinase SRC (HsSRC) (Homo sapiens, UniProt P12931); parameters: method as in PMID 30830766; settings: read-out: HsSR IC50; cited from earlier work
T1 sequence (P12931 whole entry): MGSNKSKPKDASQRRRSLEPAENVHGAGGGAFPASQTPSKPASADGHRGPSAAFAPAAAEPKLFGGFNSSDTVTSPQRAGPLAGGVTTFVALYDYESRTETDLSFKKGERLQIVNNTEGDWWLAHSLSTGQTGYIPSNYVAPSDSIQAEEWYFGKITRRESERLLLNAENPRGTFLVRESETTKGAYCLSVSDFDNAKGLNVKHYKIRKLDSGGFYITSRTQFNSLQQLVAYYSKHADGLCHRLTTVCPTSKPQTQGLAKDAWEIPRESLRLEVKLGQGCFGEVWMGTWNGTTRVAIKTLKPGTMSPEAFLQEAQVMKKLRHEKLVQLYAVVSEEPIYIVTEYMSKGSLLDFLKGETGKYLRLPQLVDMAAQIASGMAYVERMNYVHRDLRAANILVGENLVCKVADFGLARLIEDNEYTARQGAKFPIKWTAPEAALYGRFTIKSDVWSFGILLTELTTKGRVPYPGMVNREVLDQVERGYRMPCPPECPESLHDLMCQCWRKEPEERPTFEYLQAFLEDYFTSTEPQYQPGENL

hERG = hERG (Homo sapiens, UniProt Q12809); assay: In vitro inhibition of hERG; type: biochemical
Sequence of hERG (Q12809 whole entry): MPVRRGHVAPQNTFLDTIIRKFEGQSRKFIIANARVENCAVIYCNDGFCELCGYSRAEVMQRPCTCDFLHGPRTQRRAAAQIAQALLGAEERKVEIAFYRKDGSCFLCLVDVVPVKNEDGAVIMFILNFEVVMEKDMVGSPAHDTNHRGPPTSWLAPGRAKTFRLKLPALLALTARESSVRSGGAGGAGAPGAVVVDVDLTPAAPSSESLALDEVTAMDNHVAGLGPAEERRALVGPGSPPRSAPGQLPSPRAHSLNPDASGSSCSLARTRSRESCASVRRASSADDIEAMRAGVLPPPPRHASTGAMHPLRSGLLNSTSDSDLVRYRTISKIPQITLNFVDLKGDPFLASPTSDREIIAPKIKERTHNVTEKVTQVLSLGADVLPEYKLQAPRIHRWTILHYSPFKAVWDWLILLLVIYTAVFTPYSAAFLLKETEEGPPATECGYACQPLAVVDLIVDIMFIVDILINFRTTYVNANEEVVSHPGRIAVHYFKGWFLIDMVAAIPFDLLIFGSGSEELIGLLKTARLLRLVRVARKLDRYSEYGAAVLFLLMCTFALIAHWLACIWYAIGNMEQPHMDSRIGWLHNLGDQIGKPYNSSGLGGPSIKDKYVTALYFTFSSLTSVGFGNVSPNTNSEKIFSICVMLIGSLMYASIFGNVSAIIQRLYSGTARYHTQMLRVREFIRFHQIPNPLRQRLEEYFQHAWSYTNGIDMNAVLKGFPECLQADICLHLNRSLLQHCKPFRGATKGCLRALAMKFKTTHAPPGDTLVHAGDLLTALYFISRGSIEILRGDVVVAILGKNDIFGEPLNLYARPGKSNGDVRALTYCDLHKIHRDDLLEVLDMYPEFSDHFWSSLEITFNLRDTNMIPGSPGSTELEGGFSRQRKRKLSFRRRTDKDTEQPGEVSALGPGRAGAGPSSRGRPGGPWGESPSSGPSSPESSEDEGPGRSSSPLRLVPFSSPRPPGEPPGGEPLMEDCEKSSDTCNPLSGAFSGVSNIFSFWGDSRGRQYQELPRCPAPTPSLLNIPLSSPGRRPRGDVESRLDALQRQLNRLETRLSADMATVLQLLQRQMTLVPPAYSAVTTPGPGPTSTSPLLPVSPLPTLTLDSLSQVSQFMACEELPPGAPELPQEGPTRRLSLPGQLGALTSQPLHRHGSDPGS
Text: (§1) Methods for synthesis of BKIs ([17], [23]), efficacy against Nluc expressing C. parvum in infected adult IFN-γ KO mice ([6], [9]), in vivo mouse GI tract tissue exposure by LC/MS-MS analysis ([18], [28]), PK analysis of mouse plasma and brain tissue BKI concentrations by LC/MS-MS analysis ([29]), in vivo rat and dog cardiotoxicity screen ([30]), efficacy against IOWA-II strain C. parvum in infected neonatal calves ([13]), efficacy against C. hominis in infected piglets ([12]), in vitro inhibition of C. parvum CDPK1 (CpCDPK1) and human tyrosine kinase SRC (HsSRC) activity ([31]), in vitro inhibition of hERG ([32]), Nluc expressing C. parvum in vitro growth inhibition in infected HCT-8 cells ([6]), in vitro cytotoxicity in CRL-8155 and HepG2 cells ([29]), and mouse locomotor activity box ([33], [34]) have all been previously described. Analytes were measured by LC/MS-MS on an Acquity ultra performance liquid chromatography (UPLC) system in tandem with a Xevo TQ-S mass spectrometer (Waters, Milford, MA, USA).

[4] = test system: Nluc expressing C. parvum; assay: Nluc expressing C. parvum in vitro growth inhibition in infected HCT-8 cells; type: cell-based; settings: Cryptosporidium parvum
Text: as §1

[5] = target: T2, C. parvum calcium dependent protein kinase 1 (CpCDPK1) (Cryptosporidium parvum, UniProt A3FQ16); assay: In vitro inhibition of CpCDPK1; type: biochemical
T2 sequence (A3FQ16 1-538): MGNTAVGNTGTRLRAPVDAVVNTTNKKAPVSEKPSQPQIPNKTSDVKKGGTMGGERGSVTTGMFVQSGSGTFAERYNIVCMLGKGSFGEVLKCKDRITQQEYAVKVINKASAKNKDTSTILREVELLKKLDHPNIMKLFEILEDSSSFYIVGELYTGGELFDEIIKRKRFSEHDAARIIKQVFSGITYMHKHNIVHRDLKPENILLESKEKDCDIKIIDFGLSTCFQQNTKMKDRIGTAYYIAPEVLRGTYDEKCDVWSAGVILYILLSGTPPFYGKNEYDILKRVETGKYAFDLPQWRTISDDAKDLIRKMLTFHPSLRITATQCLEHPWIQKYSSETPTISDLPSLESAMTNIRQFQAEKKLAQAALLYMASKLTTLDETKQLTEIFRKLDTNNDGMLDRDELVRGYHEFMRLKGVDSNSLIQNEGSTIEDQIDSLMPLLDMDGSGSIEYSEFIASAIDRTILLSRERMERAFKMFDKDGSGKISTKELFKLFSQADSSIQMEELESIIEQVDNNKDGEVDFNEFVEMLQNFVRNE
Text: as §1

[6] = target: T1, human tyrosine kinase SRC (HsSRC); assay: In vitro inhibition of HsSRC; type: biochemical; settings: read-out: HsSR IC50
Text: as §1

For `CCOc1ccc2cc(-c3nn(C(C)(C)CCO)c(N)c3C(N)=O)ccc2c1` [BKI-1770], the “effects on MAP, HR, contractility, SVR, CO, QTcV, QRS, PR vs control” value ([1]; anesthetized dogs, 0.02 mL/kg/min, 150 min) is given as “No appreciable effects”, the CO ([1]; 15 min) is given as 0% and the HR ([1]; 15 min) is given as 4%. The MAP ([1]; 15 min) was 2%, the PR ([1]; 15 min) was -3 ms and the QRS ([1]; 15 min) was 0 ms. For the same compound, the QTcV ([1]; 15 min) was 4 ms, the SVR ([1]; 15 min) was 2% and the “dp/dt@50” value ([1]; 15 min) was 1%. For the same compound, the CO ([1]; 30 min) was 4%, the HR ([1]; 30 min) was 5% and the MAP ([1]; 30 min) was 2%. For the same compound, the PR ([1]; 30 min) was 0 ms, the QRS ([1]; 30 min) was 0 ms and the QTcV ([1]; 30 min) was 1 ms. For the same compound, the SVR ([1]; 30 min) was -1%, the “dp/dt@50” value ([1]; 30 min) was 0% and the CO ([1]; 45 min) was 3%. For the same compound, the HR ([1]; 45 min) was 8%, the MAP ([1]; 45 min) was 2% and the PR ([1]; 45 min) was -1 ms. For the same compound, the QRS ([1]; 45 min) was -1 ms, the QTcV ([1]; 45 min) was 1 ms and the SVR ([1]; 45 min) was -2%. The “dp/dt@50” value ([1]; 45 min) was 1%, the CO ([1]; 60 min) was -1% and the HR ([1]; 60 min) was 9%. The MAP ([1]; 60 min) was 2%, the PR ([1]; 60 min) was -1 ms and the QRS ([1]; 60 min) was -2 ms. For the same compound, the QTcV ([1]; 60 min) was -1 ms, the SVR ([1]; 60 min) was 2% and the “dp/dt@50” value ([1]; 60 min) was -1%. The CO ([1]; 75 min) was -1%, the HR ([1]; 75 min) was 9% and the MAP ([1]; 75 min) was 0%. For the same compound, the PR ([1]; 75 min) was -1 ms, the QRS ([1]; 75 min) was -2 ms and the QTcV ([1]; 75 min) was -3 ms. The SVR ([1]; 75 min) was 1%, the “dp/dt@50” value ([1]; 75 min) was -2% and the CO ([1]; 90 min) was -9%. The HR ([1]; 90 min) was 10%, the MAP ([1]; 90 min) was -1% and the PR ([1]; 90 min) was 0 ms. For the same compound, the QRS ([1]; 90 min) was -2 ms, the QTcV ([1]; 90 min) was -2 ms and the SVR ([1]; 90 min) was 8%. For the same compound, the “dp/dt@50” value ([1]; 90 min) was -6%, the CO ([1]; 105 min) was -4% and the HR ([1]; 105 min) was 9%. The MAP ([1]; 105 min) was -2%, the PR ([1]; 105 min) was 0 ms and the QRS ([1]; 105 min) was -3 ms. For the same compound, the QTcV ([1]; 105 min) was -1 ms, the SVR ([1]; 105 min) was 2% and the “dp/dt@50” value ([1]; 105 min) was -7%. For the same compound, the CO ([1]; 120 min) was -5%, the HR ([1]; 120 min) was 10% and the MAP ([1]; 120 min) was -2%. For the same compound, the PR ([1]; 120 min) was -1 ms, the QRS ([1]; 120 min) was -2 ms and the QTcV ([1]; 120 min) was 0 ms. For the same compound, the SVR ([1]; 120 min) was 4%, the “dp/dt@50” value ([1]; 120 min) was -7% and the CO ([1]; 135 min) was -8%. For the same compound, the HR ([1]; 135 min) was 11%, the MAP ([1]; 135 min) was -3% and the PR ([1]; 135 min) was -1 ms. For the same compound, the QRS ([1]; 135 min) was -1 ms, the QTcV ([1]; 135 min) was -2 ms and the SVR ([1]; 135 min) was 7%. The “dp/dt@50” value ([1]; 135 min) was -7%, the CO ([1]; 150 min) was -7% and the HR ([1]; 150 min) was 13%. For the same compound, the MAP ([1]; 150 min) was -5%, the PR ([1]; 150 min) was -2 ms and the QRS ([1]; 150 min) was -1 ms. The QTcV ([1]; 150 min) was -1 ms, the SVR ([1]; 150 min) was 4% and the “dp/dt@50” value ([1]; 150 min) was -7%. The signs of cardiotoxicity ([1]; dogs) was “no signs of cardiotoxicity”, the “effects on MAP, HR, left ventricular contractility vs vehicle” value ([2]; anesthetized rats, 30-minute IV infusions of 3, 10, 30 mg/kg, significant >15%) was “No significant effects” and the HR ([2]; IV 3 mg/kg) was 8%. For the same compound, the MAP ([2]; IV 3 mg/kg) was -7%, the “dP/dt@50” value ([2]; IV 3 mg/kg) was 0% and the HR ([2]; IV 10 mg/kg) was 8%. The MAP ([2]; IV 10 mg/kg) was 5%, the “dP/dt@50” value ([2]; IV 10 mg/kg) was 9% and the HR ([2]; IV 30 mg/kg) was 3%. For the same compound, the MAP ([2]; IV 30 mg/kg) was -7%, the “dP/dt@50” value ([2]; IV 30 mg/kg) was 8% and the signs of cardiotoxicity ([2]; rats) was “no signs of cardiotoxicity”. The IC50 [3] was over 10000 nM.

Compound `CCOc1ccc2cc(-c3nn(C4CCOCC4)c(N)c3C(N)=O)ccc2n1` [BKI-1841] has an IC50 (hERG) of over 30000 nM, an EC50 [4] of 700 nM and an IC50 [5] of 3 nM. For the same compound, the IC50 [6] was over 10000 nM.
